Assay results: patent publication US12622892B2, “Methods for treating endometriosis” (THE TEXAS A&M UNIVERSITY SYSTEM, priority 2020, dated 2026)

How the values were obtained:
GAL4-NR4A1 = target: T1, GAL4-NR4A1 (Homo sapiens, UniProt P22736); test: Luciferase assay, GAL4-NR4A1 chimera/UAS-luc in ESECT-7 cells; assay type: cell-based; conditions: ESECT-7 cells transfected with GAL4-NR4A1 chimera/UAS-luc; 18 hr treatment; FIG. 2A
T1 construct: GAL4 (fusion partner); expressed in transfected cells; host or cells: ESECT-7 patient-derived endometriotic cells
Method: Luciferase assay: ESECT-7 and ESECT-40 cells were plated on 12-well plates in DMEM/F12 supplemented with 2.5% charcoal-stripped FBS. After overnight attachment and growth, various amounts of DNA [i.e., UASx5-Luc (500 ng), GAL4-NR4A1 (50 ng), NBREx3-Luc (800 ng), NurREx3-Luc (800 ng) and Flag-NR4A1 (80 ng)] were co-transfected into each well using Lipofectamine 2000 reagent (Invitrogen, Carlsbad, CA) according to the manufacturer's protocol. After 6 hr of transfection, cells were treated with plating medium (as above) containing either solvent (DMSO) or indicated concentrations of the compound for 18 hr. Cells were then lysed and cell extracts were used for chemiluminescence quantification of luciferase activity. Luciferase activity values were normalized against corresponding protein concentration values determined by Bradford assay. Both GAL4- and Flag-NR4A1 constructs contain full-length NR4A1 coding sequence and all the plasmids used in this study were previously described.

ESECT-7 cells = test: Western blotting of growth promoting and proapoptotic gene products, ESECT-7; assay type: cell-based, human
From the text: Reagents and Antibodies: Annexin V Dead Cell Apoptosis Kit (V13241) was purchased from Invitrogen. The primary antibodies used were EGFR (4267, 1:1000), Survivin (2808, 1:1000), c-Caspase-3 (9661, 1; 1000), c-PARP (9541, 1:1000) from Cell Signaling Technology (Danvers, MA) and c-Myc (sc-40, 1:500), Bcl-2 (sc-509, 1:500) and Bax (sc-20067, 1:500) from Santacruz Biotechnology (Santacruz, CA), NR4A1 (ab109180, 1:3000) and α-SMA (ab32575, 1:3000) from Abcam (Cambridge, MA), β-Actin (A1978, 1:10000) from Sigma Aldrich Corporation (Milwaukee, WI). COL1A1 (GTX112731, 1:2000), CTGF (GTX124232, 1:2000) and FN (GTX112794, 1:2000) from GeneTex, Inc. (Irvine, CA). Secondary antibodies for rabbit (7074), mouse (7076) and Anti-rabbit Alexa Fluor (4412) purchased from Cell Signaling Technology (Danvers, MA). […]
Western Blotting: ESECT-7 and ESECT-40 cells (2×105) were seeded and allowed to attach for 24 hr, and cells were then treated for 24 hr with either DMSO or different concentrations of DIM-C-pPhOH and DIM-C-pPhOH-3-Cl-5-OCH3. Cells were then lysed and whole-cell lysates were resolved in 10% SDS-PAGE gels and proteins were transferred using PVDF membrane by wet blotting followed by primary and secondary antibody incubation and detected using ECL reagent as described.

human ectopic lesions = test: Endometriosis mouse model by hetero-transplantation with human endometrial cells in SCID mice; assay type: in vivo; conditions: SCID mice with HECs carrying luciferase; 25 mg/kg once a day, 30 days; p=0.022; FIGS. 9B, 9C
From the text: Endometriosis Mouse Model by Hetero-transplantation with immortalized human endometrial cells: The luciferase stable immortalized human endometrial epithelial cells […] and luciferase stable immortalized human endometrial stromal cells (LIHESCs) were generated from IHESCs isolated from endometria obtained from hysterectomies for benign conditions and IHEECs generated from ovarian endometrioma by transducing lentivirus-expressing luciferase and then the expression of luciferase was validated with the luciferase activity assay. Matrigel contained the mixture of LIHESCs (1×10^6 cells) and LIHEECs (1×10^6 cells) were injected into the peritoneal cavity of female severe combined immune deficiency (SCID) mice (6 weeks old) to induce endometriosis. Henceforth, we refer to the mixture of LIHEECs and LIHESCs as human endometrial cells (HEC). […] To noninvasively determine the progression of human ectopic lesions, we injected mice with 150 mg/kg of D-Luciferin intra-peritoneally 5 min before imaging, and then determined luciferase activities of human ectopic lesions in mice using In Vivo Image System.

T1 sequence (P22736 with tags, fused parts or gaps): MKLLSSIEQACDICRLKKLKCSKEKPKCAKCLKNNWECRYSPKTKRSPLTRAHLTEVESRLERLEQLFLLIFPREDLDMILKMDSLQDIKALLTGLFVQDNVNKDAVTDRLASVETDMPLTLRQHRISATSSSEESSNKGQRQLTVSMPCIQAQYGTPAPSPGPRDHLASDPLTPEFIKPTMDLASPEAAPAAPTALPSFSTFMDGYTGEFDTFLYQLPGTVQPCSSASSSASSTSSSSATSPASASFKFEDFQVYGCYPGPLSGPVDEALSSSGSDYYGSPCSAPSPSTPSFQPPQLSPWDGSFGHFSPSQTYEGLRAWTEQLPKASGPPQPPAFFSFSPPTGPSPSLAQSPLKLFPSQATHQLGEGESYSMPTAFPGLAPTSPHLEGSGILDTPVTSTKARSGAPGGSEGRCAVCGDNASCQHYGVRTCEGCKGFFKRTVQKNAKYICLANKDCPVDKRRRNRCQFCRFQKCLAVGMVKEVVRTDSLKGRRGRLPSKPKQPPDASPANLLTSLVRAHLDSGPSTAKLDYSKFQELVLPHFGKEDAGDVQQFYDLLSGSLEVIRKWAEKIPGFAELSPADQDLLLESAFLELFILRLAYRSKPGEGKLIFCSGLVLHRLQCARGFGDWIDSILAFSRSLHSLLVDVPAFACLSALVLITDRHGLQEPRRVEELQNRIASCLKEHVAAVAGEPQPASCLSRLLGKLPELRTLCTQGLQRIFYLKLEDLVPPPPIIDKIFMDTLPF
From the text for mouse ectopic lesions: Endometriosis Mouse Model with Auto-transplantation: One uterine horn was isolated from a female mouse (6 weeks old, C57BL/6J) under anesthesia, and then the uterine horn was longitudinally cut. Using a 2-mm dermal biopsy punch, one endometrial fragment was obtained from the isolated uterus and subsequently sutured to the mesenteric membrane attached to the intestine of the same mouse. The abdominal incision then was closed by suture. Before harvesting ectopic lesions, the mouse estrous cycle was determined using vaginal cytology. At the estrus stage in the 3rd week after endometriosis induction, ectopic lesions were isolated from mice with endometriosis. As the endometriosis control, uteri were isolated from C57BL/6J female mice without endometriosis at the estrus stage at 10 weeks of age.
Endometriosis Treatment with C-DIM: Endometriosis was induced to mice with auto- and hetero-transplantation method as described above. […] In the case of the auto-transplantation model, we isolated mouse ectopic lesions treated with C-DIM versus the vehicle from mice with endometriosis at the estrus stage in the 3rd week after drug treatment and then determined their volume. In the case of the hetero-transplantation model, we determined the luciferase activity of the human ectopic lesions treated with C-DIM versus vehicle in SCID mice with endometriosis during the drug treatment.

COc1cc(C(c2c[nH]c3ccccc23)c2c[nH]c3ccccc23)cc(Cl)c1O [DIM-C-pPhOH-3-Cl-5-OCH3]
intrinsic transcriptional activity of GAL4-NR4A1 (GAL4-NR4A1): inhibited the intrinsic transcriptional activity | expression of EGFR and cMyc (ESECT-7 cells; 5-10 μM, 24 hr, FIG. 2D): downregulated | markers of apoptosis (downregulation of survivin and Bcl-2, induced Bax, cleaved PARP and caspase-3) (ESECT-7 cells; Five μM, 24 hours, FIG. 3C): significantly induced several markers of apoptosis | reduction of the volume of ectopic lesions compared to the vehicle (mouse ectopic lesions; 25 mg/kg every day, intraperitoneal, three weeks, p=0.015, FIG. 8D): 2.4 fold | bodyweight of mice as compared to the vehicle (mouse ectopic lesions; mouse, in vivo): did not change | reduction of luciferase activity in human ectopic lesions compared with the vehicle (human ectopic lesions): 13.4 fold
